Measured values: patent US20230077514A1, “METHODS FOR MODULATING CALORIE CONSUMPTION” (Duke University, priority 2020, published 2023)
“Also recorded” adds a separate entry of the source.

How the values were obtained:
P2 purinoceptor = assay: Vagal nerve recording with P2 purinoceptor antagonist; type: in vivo, mice; details: PPADS 25 mg/kg
Source text: Margolskee, J. Biol. Chem. 277(1): 1-4 (2002); Lu et al., Nature Com. 10(1): (2019). […] (FIG. 33, FIG. 36, and FIG. 37).

cervical vagus nerve = assay: Whole nerve electrophysiology of the cervical vagus during duodenal sugar perfusion; type: in vivo, mice; details: for vagal response (firing) to intraduodenal sugar vs baseline: wild-type mice, sucrose 300 mM, D-glucose 150 mM, fructose 150 mM, galactose 150 mM, maltodextrin 8%, α-MGP 150 mM, sucralose 15 mM, acesulfame K 15 mM, saccharin 15 mM
Protocol: FIG. 1. […] Model: sugars are perfused into the duodenal lumen while nerve activity is recorded from the cervical vagus of anesthetized wild-type mice.
The proximal duodenum was perfused with sugars, thus bypassing any gustatory or gastric activation. Sugars were tested based on the following properties: both caloric content and sweet taste (sucrose [300 mM], D-glucose [150 mM], […], galactose [150 mM]), calorie-only (maltodextrin [8%], alpha-methylglucopyranoside (α-MGP) [150 mM]), or taste-only (sucralose [15 mM], acesulfame-K [15 mM], saccharin [15 mM]) (FIG. 1, FIG. 2, FIG. 3, FIG. 4).

[1] = tested on: murine small intestinal organoids; assay: Glutamate release assay on murine small intestinal organoids; type: cell-based, mouse; details: sucrose 300 mM, α-MGP 150 mM, sucralose 15 mM; for glutamate concentration in the supernatant after stimulation: PBS control 2.632 ± 1.280; for glutamate release compared to PBS: p < 0.05
Protocol: Slc5a1+ Cck-GFP cells express transcripts for the vesicular glutamate transporters Slc17a6, Slc17a7, Slc17a8 and the excitatory neurotransmitter transporters Slc1a1, Slc1a2, and Slc1a3 (FIG. 4). […] A glutamate release assay was performed on murine small intestinal organoids to determine if glutamate release was stimuli specific (FIG. 24-left). α-MGP was used for a caloric stimulus with no sweet taste, because it is not metabolized once it enters the cell and thus allowed for isolation of cell entry. After nutrient stimulation, the glutamate concentration in the supernatant was 2.632 ± 1.280 ng/µL for PBS control, 13.460 ± 1.724 ng/µL for sucrose [300 mM], 18.183 ± 7.904 ng/µL for α-MGP [150 mM], and 6.053 ± 1.169 ng/µL for sucralose [15 mM].

human duodenal organoids = assay: Glutamate release assay on human duodenal organoids; type: cell-based; details: sucrose 300 mM, α-MGP 150 mM, sucralose 15 mM, n = 1 human
duodenal Cck cells = assay: Vagal recording with intraluminal 532 nm laser silencing of duodenal Cck (neuropod) cells; type: in vivo; details: Cck_Halo mice; sucrose 300 mM, α-mgp 150 mM, sucralose 15 mM
Protocol: FIG. 9. Model: intraluminal 532 nm laser activates NpH3 chloride channels to silence duodenal Cck cells in CckCRE_NpH3 mice.
Using whole nerve electrophysiology of the cervical vagus nerve, it was confirmed that vagal activity increases in the presence of luminal sugars. Kaelberer et al., Science 361 (6408) (2018). The proximal duodenum was perfused with sugars, thus bypassing any gustatory or gastric activation. Sugars were tested based on the following properties: both caloric content and sweet taste (sucrose [300 mM], D-glucose [150 mM], fructose [150 mM], galactose [150 mM]), calorie-only (maltodextrin [8%], alpha-methylglucopyranoside (α-MGP) [150 mM]), or taste-only (sucralose [15 mM], acesulfame-K [15 mM], saccharin [15 mM]) (FIG. 1, FIG. 2, FIG. 3, FIG. 4). […] Intraluminal application of the 532 nm laser eliminated the vagal response to sucrose [300 mM], α-mgp [150 mM], and sucralose [15 mM] (n ≥ 5, p < 0.001) (FIG. 10 and FIG. 11; laser activation and wild-type controls). Thus, neuropod cells are required to sense both the calorie and taste properties of sugar and communicate these signals onto vagal neurons.
Cck neuropod cells in the duodenum express receptors for fatty acids (FIG. 69), analyzed by bulk sequencing Cck-positive and Cck-negative epithelial cells in the duodenum of CckGFP mice. Thus, CCK cells in the duodenum may signal the presence of fatty acids to the vagus nerve. To test this, the silencing optogenetic channel was expressed in Cck cells of mice. […] In the duodenum, there is overlap in cells expressing CCK and the vesicular glutamate transporter 1 (Vglut1), required for release of the neurotransmitter glutamate. To test whether glutamate is required as a signaling molecule for fat transduction to the vagus nerve, a cocktail of glutamate receptor inhibitors was perfused through the duodenum of wild type mice. Blockade of ionotropic and metabotropic glutamate receptors blocked vagal firing elicited by glutamate (FIG. 71). […] In an initial baseline test, mice freely explore an arena for 20 minutes, during which their position in the arena measured. […]

[2] = Two-bottle choice between iso-sweet sucrose and sucralose; type: in vivo, mice
Protocol: Domingos et al., Nature Neurosci. […] Behav. […] Bennink et al., J. Nucl. […] Perez et al., Pharmacol. Biochem. Behav. […] Thus, a goal of this study was to determine if synaptic gut-brain neurotransmission drives sugar preference.
CckCRE_NpH3 mice (n = 8) and littermate controls (n = 5) were implanted with the flexible fiberoptic and given the choice between iso-sweet sucrose [300 mM] and sucralose [15 mM] in a one-hour choice assay (FIG. 38 and FIG. 53). […] Whether the caloric neurotransmitter glutamate was contributing to the sucrose preference was tested.

[3] = target: T1, sweet taste receptor T1R2/3 (Mus musculus, UniProt Q925D8+Q925I4); assay: Receptor pharmacology in whole nerve (vagal) electrophysiology: sweet taste receptor block; type: in vivo, mice; details: gurmarin 7 µM
T1 construct: from tissue; host or cells: living mouse: duodenal lumen perfused, cervical vagus nerve recorded
T1 sequence (Q925I4 20-843): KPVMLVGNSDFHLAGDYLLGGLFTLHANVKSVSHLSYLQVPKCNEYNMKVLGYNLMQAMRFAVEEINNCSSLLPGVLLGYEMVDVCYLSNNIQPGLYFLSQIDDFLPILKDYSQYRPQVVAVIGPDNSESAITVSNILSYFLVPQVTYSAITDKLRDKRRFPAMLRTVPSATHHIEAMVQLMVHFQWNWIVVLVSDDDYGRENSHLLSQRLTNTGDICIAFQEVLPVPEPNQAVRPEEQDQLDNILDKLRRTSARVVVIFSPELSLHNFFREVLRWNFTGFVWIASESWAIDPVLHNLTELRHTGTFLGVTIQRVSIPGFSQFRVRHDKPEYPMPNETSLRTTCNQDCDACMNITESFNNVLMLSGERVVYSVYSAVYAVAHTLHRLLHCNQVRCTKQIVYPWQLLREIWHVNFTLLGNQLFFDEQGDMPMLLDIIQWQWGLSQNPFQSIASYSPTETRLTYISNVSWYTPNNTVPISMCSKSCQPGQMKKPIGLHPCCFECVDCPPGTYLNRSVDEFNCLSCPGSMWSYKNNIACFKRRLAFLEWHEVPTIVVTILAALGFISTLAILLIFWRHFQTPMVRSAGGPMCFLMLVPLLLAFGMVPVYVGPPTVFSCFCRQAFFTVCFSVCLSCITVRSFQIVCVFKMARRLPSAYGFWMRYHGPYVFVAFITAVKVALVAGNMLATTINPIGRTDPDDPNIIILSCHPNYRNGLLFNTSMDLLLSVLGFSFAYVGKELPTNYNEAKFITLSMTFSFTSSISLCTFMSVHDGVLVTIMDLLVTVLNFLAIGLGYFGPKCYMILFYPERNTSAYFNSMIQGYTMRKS
T1 sequence (Q925D8 21-858): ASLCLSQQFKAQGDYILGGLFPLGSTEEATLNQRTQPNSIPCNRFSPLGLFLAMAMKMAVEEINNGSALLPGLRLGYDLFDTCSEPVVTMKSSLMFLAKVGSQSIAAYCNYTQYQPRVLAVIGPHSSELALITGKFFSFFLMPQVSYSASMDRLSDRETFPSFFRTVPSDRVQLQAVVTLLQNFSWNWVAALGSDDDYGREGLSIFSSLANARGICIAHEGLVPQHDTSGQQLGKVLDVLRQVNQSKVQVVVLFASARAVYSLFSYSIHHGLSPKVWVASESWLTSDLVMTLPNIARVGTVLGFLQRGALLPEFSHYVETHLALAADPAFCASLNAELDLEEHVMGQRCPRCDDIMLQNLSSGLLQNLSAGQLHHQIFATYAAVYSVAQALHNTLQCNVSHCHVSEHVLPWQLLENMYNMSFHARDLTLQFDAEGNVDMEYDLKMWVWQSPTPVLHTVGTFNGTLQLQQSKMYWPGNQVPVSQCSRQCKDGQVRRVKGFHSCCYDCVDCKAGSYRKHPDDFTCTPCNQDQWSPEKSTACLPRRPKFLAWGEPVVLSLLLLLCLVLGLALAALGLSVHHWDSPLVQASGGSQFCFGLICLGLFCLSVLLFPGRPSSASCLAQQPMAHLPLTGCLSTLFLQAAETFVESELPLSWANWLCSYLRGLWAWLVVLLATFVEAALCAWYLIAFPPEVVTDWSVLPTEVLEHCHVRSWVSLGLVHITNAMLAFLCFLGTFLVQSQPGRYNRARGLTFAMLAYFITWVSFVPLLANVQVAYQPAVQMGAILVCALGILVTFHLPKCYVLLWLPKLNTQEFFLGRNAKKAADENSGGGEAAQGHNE
Source text: (FIG. 21 and FIG. 22), showing neuropod cells use two distinct receptor mechanisms to transduce caloric and non-caloric sugar signals to the vagus nerve.

Cc1nc(N=Nc2ccc(S(=O)(=O)O)cc2S(=O)(=O)O)c(COP(=O)(O)O)c(C=O)c1O [PPADS, pyridoxalphosphate-6-azophenyl-2’,4'-disulfonic acid]
time to peak vagal firing rate to sucralose (P2 purinoceptor; sucralose 15 mM): prolonged | effect on vagal response to sucralose (P2 purinoceptor; sucralose 15 mM, wild-type mice): significantly attenuates; also recorded: abolished | effect on vagal response to sucrose (P2 purinoceptor; sucrose 300 mM): not affected | effect on vagal response to α-MGP (P2 purinoceptor; α-MGP 150 mM): not affected

CC1=CC(=O)[N-]S(=O)(=O)O1.[K+] [acesulfame K]
vagal response (firing) to intraduodenal sugar vs baseline (cervical vagus nerve): responds significantly

O=C(CO)[C@@H](O)[C@H](O)[C@H](O)CO [fructose]
vagal response at high concentrations (cervical vagus nerve; fructose 600 mM and 1 M, n.s.): blunted vagal response | vagal response (firing) to intraduodenal sugar vs baseline (cervical vagus nerve): no significant

O=C[C@H](O)[C@@H](O)[C@@H](O)[C@H](O)CO [galactose]
vagal response (firing) to intraduodenal sugar vs baseline (cervical vagus nerve): elicited significant vagal firing

O=C1NS(=O)(=O)c2ccccc21 [saccharin]
vagal response (firing) to intraduodenal sugar vs baseline (cervical vagus nerve): no significant

OC[C@H]1O[C@@](CO)(O[C@H]2O[C@H](CO)[C@@H](O)[C@H](O)[C@H]2O)[C@@H](O)[C@@H]1O [sucrose]
vagal response (firing) to intraduodenal sugar vs baseline (cervical vagus nerve): responds significantly | glutamate concentration in the supernatant after stimulation [1]: 13.460 ± 1.724 ng/µL | glutamate release compared to PBS [1]: significantly higher; also recorded: elicit significant release of glutamate | glutamate release compared to PBS control (human duodenal organoids): elicited glutamate release; also recorded: release significant amounts of glutamate | vagal response with Cck cells silenced by 532 nm laser (duodenal Cck cells): eliminated | preference for sucrose ([2]; CckCRE_NpH3 mice, control 473 nm laser, one-hour choice): 90.8% ± 3.74% | preference for sucrose ([2]; CckCRE_NpH3 mice, silencing 532 nm laser, one-hour choice vs sucralose 15 mM): 58.9% ± 3.92% | preference for sucrose ([2]; negative genotype littermate controls, 473 nm): 84.2% ± 6.30% | preference for sucrose ([2]; negative genotype littermate controls, 532 nm): 87.7% ± 2.21

COC1OC(CO)C(O)C(O)C1O (stereo not drawn) [α-MGP, alpha-methylglucopyranoside]
vagal response (firing) to intraduodenal sugar vs baseline (cervical vagus nerve): responds significantly | glutamate concentration in the supernatant after stimulation [1]: 18.183 ± 7.904 ng/µL | glutamate release compared to PBS [1]: significantly higher | glutamate release compared to PBS ([1]; listed as aMGP): elicit significant release of glutamate | glutamate release compared to PBS control (human duodenal organoids): elicited glutamate release | glutamate release compared to PBS control (human duodenal organoids; listed as aMGP): release significant amounts of glutamate | vagal response with Cck cells silenced by 532 nm laser (duodenal Cck cells): eliminated

gurmarin
effect on vagal firing elicited by sucralose ([3]; sucralose 15 mM): abolished; also recorded: inhibited | effect on vagal response to sucrose ([3]; sucrose 300 mM): did not affect | effect on vagal response to α-MGP ([3]; α-MGP 150 mM): did not affect
